For two compounds, GI50 and TGI results are on record in PubChem BioAssay (NCI).

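Briefly, cells in 96-well plates were exposed to five compound concentrations for 48 h, and endpoints were estimated by linear interpolation. Here, GI50 denotes the concentration required for 50% inhibition of growth. Definition used: TGI = concentration required for complete inhibition of growth.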

Holding throughout (assay): inhibition of tumour cell growth, NCI panel, 48 h
For assay [1], the system named is HCT-15 colon.
Assay [2] has as its system HOP-92 NSCLC.
The subject of assay [3] is HS 578T breast.
Assay [4] deals with HT29 colon.
The subject of assay [5] is MCF7 breast.
Assay [6] concerns MDA-MB-231 breast.
In assay [7] the test system is MOLT-4 leukemia.
In assay [8] the test system is NCI-H23 lung.
Assay [9] concerns RXF 393 renal.
Assay [10] relates to SR leukemia.

Take `CC(=O)Nc1ccc(Sc2ccc([N+](=O)[O-])o2)cc1`: the GI50 was 0.806 µM in assay [1]; 1.76 µM in assay [2]; 3.87 µM in assay [3]; 1.56 µM in [4]; 1.88 µM in [5]; 2.18 µM in assay [6]. In addition, the GI50 in assay [7] was 2.14 µM; in assay [8], 2.99 µM; in [9] it was 0.929 µM; in assay [10], 2.8 µM. The TGI in [1] came out at 3.18 µM; in assay [2] it was 3.55 µM; in assay [3] it was 24.9 µM; in [4], 3.25 µM; in assay [5], 6.92 µM; in assay [6] it was 4.95 µM. Moreover, the TGI was 6.42 µM in assay [7], 10.2 µM in assay [8], 3.46 µM in [9] and 12.6 µM in assay [10].

With `NC(CSC(c1ccccc1)(c1ccccc1)c1ccc(Cl)cc1)C(=O)O` (stereo not given), the GI50 in assay [1] was 0.362 µM; in assay [2], 1.4 µM; in [3], 0.114 µM; in assay [4], 0.347 µM; in assay [5], 0.0647 µM; in assay [6], 0.442 µM. In addition, the GI50 in assay [7] was 1.66 µM; in [8], 0.487 µM; in assay [9], 0.0594 µM; in assay [10], 0.121 µM. Moreover, the TGI in [1] was determined as 52.9 µM; in assay [2] it was 39.3 µM; in assay [3], 3.83 µM; in assay [4], 6.92 µM; in assay [5], 18.9 µM; in assay [6], 35.8 µM. The TGI came to 53.3 µM in assay [7], 41.9 µM in assay [8], 4.52 µM in [9] and 5.93 µM in [10].
